Key:
[1] = test system: U-251; assay: Growth inhibition of human U251 cells assessed as cell growth at 5X10'-5 M after 48 hrs by sulforhodamine B assay; assay type: functional; settings: U-251, 48 h, read-out: Activity
[2] = test system: NCI-H226; assay: Growth inhibition of human NCI-H226 cells assessed as cell growth at 5X10'-5 M after 48 hrs by sulforhodamine B assay; assay type: functional; settings: NCI-H226, 48 h, read-out: Activity
[3] = test system: HOP-92; assay: Growth inhibition of human HOP92 cells assessed as cell growth at 5X10'-5 M after 48 hrs by sulforhodamine B assay; assay type: functional; settings: HOP-92, 48 h, read-out: Activity
[4] = test system: A549; assay: Growth inhibition of human A549/ATCC cells assessed as cell growth at 5X10'-5 M after 48 hrs by sulforhodamine B assay; assay type: functional; settings: A549, 48 h, read-out: Activity
[5] = test system: MDA-MB-468; assay: Growth inhibition of human MDA-MB-468 cells assessed as cell growth at 5X10'-6 M after 48 hrs by sulforhodamine B assay; assay type: functional; settings: MDA-MB-468, 48 h, read-out: Activity
[6] = test system: MDA-MB-231; assay: Growth inhibition of human MDA-MB-231 cells assessed as cell growth at 5X10'-6 M after 48 hrs by sulforhodamine B assay; assay type: functional; settings: MDA-MB-231, 48 h, read-out: Activity
[7] = test system: ACHN; assay: Growth inhibition of human ACHN cells assessed as cell growth at 5X10'-6 M after 48 hrs by sulforhodamine B assay; assay type: functional; settings: read-out: Activity
[8] = test system: OVCAR-5; assay: Growth inhibition of human OVCAR5 cells assessed as cell growth at 5X10'-6 M after 48 hrs by sulforhodamine B assay; assay type: functional; settings: OVCAR-5, 48 h, read-out: Activity
[9] = test system: SK-MEL-28; assay: Growth inhibition of human SK-MEL-28 cells assessed as cell growth at 5X10'-6 M after 48 hrs by sulforhodamine B assay; assay type: functional; settings: SK-MEL-28, 48 h, read-out: Activity
[10] = test system: SK-MEL-2; assay: Growth inhibition of human SK-MEL-2 cells assessed as cell growth at 5X10'-6 M after 48 hrs by sulforhodamine B assay; assay type: functional; settings: SK-MEL-2, 48 h, read-out: Activity
[11] = test system: NCI-H522; assay: Growth inhibition of human NCI-H522 cells assessed as cell growth at 5X10'-9 M after 48 hrs by sulforhodamine B assay; assay type: functional; settings: NCI-H522, 48 h, read-out: Activity
[12] = test system: MDA-MB-468; assay: Growth inhibition of human MDA-MB-468 cells assessed as cell growth at 10 uM after 48 hrs by sulforhodamine B assay; assay type: functional; settings: MDA-MB-468, 48 h, read-out: Activity
[13] = test system: TK-10; assay: Growth inhibition of human TK10 cells assessed as cell growth at 10 uM after 48 hrs by sulforhodamine B assay; assay type: functional; settings: TK-10, 48 h, read-out: Activity
[14] = test system: CAKI-1; assay: Growth inhibition of human CAKI-1 cells assessed as cell growth at 10 uM after 48 hrs by sulforhodamine B assay; assay type: functional; settings: CAKI-1, 48 h, read-out: Activity
[15] = test system: SW-620; assay: Growth inhibition of human SW620 cells after 48 hrs by sulforhodamine B assay; assay type: functional; settings: SW-620, 48 h; for CC50: read-out: LC50 (the source's name)
[16] = test system: NCI-H522; assay: Growth inhibition of human NCI-H522 cells after 48 hrs by sulforhodamine B assay; assay type: functional; settings: NCI-H522, 48 h
[17] = test system: OVCAR-8; assay: Growth inhibition of human OVCAR8 cells assessed as cell growth at 10 uM after 48 hrs by sulforhodamine B assay; assay type: functional; settings: OVCAR-8, 48 h, read-out: Activity
[18] = Growth inhibition of human HCC2998 cells assessed as cell growth at 10 uM after 48 hrs by sulforhodamine B assay; assay type: functional; settings: HCC 2998, 48 h, read-out: Activity
[19] = test system: NCI-H522; assay: Growth inhibition of human NCI-H522 cells assessed as cell growth at 10 uM after 48 hrs by sulforhodamine B assay; assay type: functional; settings: NCI-H522, 48 h, read-out: Activity
[20] = test system: NCI-H460; assay: Growth inhibition of human NCI-H460 cells assessed as cell growth at 10 uM after 48 hrs by sulforhodamine B assay; assay type: functional; settings: NCI-H460, 48 h, read-out: Activity
[21] = test system: COLO 205; assay: Growth inhibition of human COLO205 cells assessed as cell growth at 5X10'-6 M after 48 hrs by sulforhodamine B assay; assay type: functional; settings: COLO 205, 48 h, read-out: Activity
[22] = test system: UO-31; assay: Growth inhibition of human UO31 cells after 48 hrs by sulforhodamine B assay; assay type: functional; settings: UO-31, 48 h; for CC50: read-out: LC50 (the source's name)
[23] = test system: CAKI-1; assay: Growth inhibition of human CAKI-1 cells after 48 hrs by sulforhodamine B assay; assay type: functional; settings: CAKI-1, 48 h; for CC50: read-out: LC50 (the source's name)
[24] = test system: A498; assay: Growth inhibition of human A498 cells assessed as cell growth at 5X10'-7 M after 48 hrs by sulforhodamine B assay; assay type: functional; settings: A498, 48 h, read-out: Activity
[25] = Growth inhibition of human NCI-ADR-RES cells assessed as cell growth at 5X10'-7 M after 48 hrs by sulforhodamine B assay; assay type: functional; settings: read-out: Activity
[26] = test system: UACC-62; assay: Growth inhibition of human UACC62 cells assessed as cell growth at 5X10'-7 M after 48 hrs by sulforhodamine B assay; assay type: functional; settings: UACC-62, 48 h, read-out: Activity
[27] = test system: 786-0; assay: Growth inhibition of human 786-0 cells after 48 hrs by sulforhodamine B assay; assay type: functional; settings: 786-0, 48 h; for CC50: read-out: LC50 (the source's name)
[28] = test system: OVCAR-3; assay: Growth inhibition of human OVCAR3 cells after 48 hrs by sulforhodamine B assay; assay type: functional, cell-based; settings: OVCAR-3, 48 h; for CC50: read-out: LC50 (the source's name)
[29] = test system: K562; assay: Growth inhibition of human K562 cells assessed as cell growth at 5X10'-7 M after 48 hrs by sulforhodamine B assay; assay type: functional; settings: K562, 48 h, read-out: Activity
[30] = test system: MDA-MB-231; assay: Growth inhibition of human MDA-MB-231 cells assessed as cell growth at 5X10'-8 M after 48 hrs by sulforhodamine B assay; assay type: functional; settings: MDA-MB-231, 48 h, read-out: Activity
[31] = test system: LOX IMVI; assay: Growth inhibition of human LOXIMVI cells assessed as cell growth at 5X10'-8 M after 48 hrs by sulforhodamine B assay; assay type: functional; settings: read-out: Activity
[32] = test system: UACC-62; assay: Growth inhibition of human UACC62 cells assessed as cell growth at 5X10'-5 M after 48 hrs by sulforhodamine B assay; assay type: functional; settings: UACC-62, 48 h, read-out: Activity
[33] = test system: MOLT-4; assay: Growth inhibition of human MOLT4 cells assessed as cell growth at 5X10'-8 M after 48 hrs by sulforhodamine B assay; assay type: functional; settings: MOLT-4, 48 h, read-out: Activity
[34] = test system: SN12C; assay: Growth inhibition of human SN12C cells assessed as cell growth at 5X10'-9 M after 48 hrs by sulforhodamine B assay; assay type: functional; settings: read-out: Activity
[35] = test system: IGROV-1; assay: Growth inhibition of human IGROV1 cells assessed as cell growth at 5X10'-9 M after 48 hrs by sulforhodamine B assay; assay type: functional; settings: IGROV-1, 48 h, read-out: Activity

SMILES: O=C(Nc1cccc(-n2cc(-c3ccncc3)c(-c3ccc(Cl)c(O)c3)n2)c1)c1ccc(N2CCOCC2)c(C(F)(F)F)c1
- growth at 50 µM [1]: -7%
- growth at 50 µM [2]: 58%
- growth at 50 µM [3]: -15%
- growth at 50 µM [4]: 4%
- growth at 5 µM [5]: 63%
- growth at 5 µM [6]: 8%
- growth at 5 µM [7]: 25%
- growth at 5 µM [8]: 111%
- growth at 5 µM [9]: 5%
- growth at 5 µM [10]: 34%
- growth at 0.005 µM [11]: 93%
- growth at 10 µM [12]: 66%
- growth at 10 µM [13]: 119%
- growth at 10 µM [14]: 81.2%
- GI50 [15]: 1.72 µM
- TGI [15]: 5.68 µM
- CC50 [15]: > 50 µM
- GI50 [16]: 2.31 µM
- LC50 (concentration killing 50% of cells) [16]: > 50 µM
- TGI [16]: 44 µM
- growth at 10 µM [17]: 37%
- growth at 10 µM [18]: 56.4%
- growth at 10 µM [19]: 39.6%
- growth at 10 µM [20]: 5.81%
- growth at 5 µM [21]: 87%
- GI50 [22]: 2.6 µM
- TGI [22]: 34.3 µM
- CC50 [22]: > 50 µM
- GI50 [23]: 2.78 µM
- TGI [23]: 24.6 µM
- CC50 [23]: > 50 µM
- growth at 0.5 µM [24]: 89%
- growth at 0.5 µM [25]: 96%
- growth at 0.5 µM [26]: 97%
- GI50 [27]: 2.83 µM
- TGI [27]: 12.5 µM
- CC50 [27]: 46.3 µM
- GI50 [28]: 4.81 µM
- IC50 [28]: 4.81 µM
- TGI [28]: > 50 µM
- CC50 [28]: > 50 µM
- growth at 0.5 µM [29]: 103%
- growth at 0.05 µM [30]: 93%
- growth at 0.05 µM [31]: 96%
- growth at 50 µM [32]: -30%
- growth at 0.05 µM [33]: 94%
- growth at 0.005 µM [34]: 98%
- growth at 0.005 µM [35]: 103%

SMILES: O=C(Nc1cccc(-n2cc(-c3ccncc3)c(-c3ccc(Cl)c(O)c3)n2)c1)Nc1cc(C(F)(F)F)cc(C(F)(F)F)c1
- growth at 50 µM [1]: -91%
- growth at 50 µM [2]: -58%
- growth at 50 µM [3]: -89%
- growth at 50 µM [4]: -80%
- growth at 5 µM [5]: -14%
- growth at 5 µM [6]: -68%
- growth at 5 µM [7]: 2%
- growth at 5 µM [8]: -54%
- growth at 5 µM [9]: -85%
- growth at 5 µM [10]: -28%
- growth at 0.005 µM [11]: 101%
- growth at 10 µM [12]: -23.9%
- growth at 10 µM [13]: -24.6%
- growth at 10 µM [14]: 8.94%
- GI50 [15]: 1.3 µM
- TGI [15]: 5.11 µM
- CC50 [15]: 23.4 µM
- GI50 [16]: 0.724 µM
- LC50 (concentration killing 50% of cells) [16]: 12.8 µM
- TGI [16]: 2.51 µM
- growth at 10 µM [17]: -12.2%
- growth at 10 µM [18]: -56.9%
- growth at 10 µM [19]: -50.1%
- growth at 10 µM [20]: -55.7%
- growth at 5 µM [21]: -94%
- GI50 [22]: 0.647 µM
- TGI [22]: 1.9 µM
- CC50 [22]: 6.6 µM
- GI50 [23]: 1.01 µM
- TGI [23]: 4.42 µM
- CC50 [23]: 26.5 µM
- growth at 0.5 µM [24]: 64%
- growth at 0.5 µM [25]: 74%
- growth at 0.5 µM [26]: 69%
- GI50 [27]: 1.17 µM
- TGI [27]: 3.16 µM
- CC50 [27]: 18 µM
- GI50 [28]: 0.395 µM
- IC50 [28]: 0.4 µM
- TGI [28]: 1.2 µM
- CC50 [28]: 3.31 µM
- growth at 0.5 µM [29]: 46%
- growth at 0.05 µM [30]: 92%
- growth at 0.05 µM [31]: 100%
- growth at 50 µM [32]: -89%
- growth at 0.05 µM [33]: 109%
- growth at 0.005 µM [34]: 96%
- growth at 0.005 µM [35]: 108%

— ChEMBL document CHEMBL2440076, “New triarylpyrazoles as broad-spectrum anticancer agents: design, synthesis, and biological evaluation” (Eur J Med Chem, 2013)
